In ChEMBL document CHEMBL1268980, “2-Aryl benzimidazoles: human SCD1-specific stearoyl coenzyme-A desaturase inhibitors” (Bioorg Med Chem Lett, 2010):
pIC50: −log10 of the molar value.

How the values were obtained:
Acyl-CoA desaturase 1 = target: T1, Acyl-CoA desaturase 1 (Rattus norvegicus, UniProt P07308); test: Inhibition of rat SCD1
T1 sequence (P07308 whole entry): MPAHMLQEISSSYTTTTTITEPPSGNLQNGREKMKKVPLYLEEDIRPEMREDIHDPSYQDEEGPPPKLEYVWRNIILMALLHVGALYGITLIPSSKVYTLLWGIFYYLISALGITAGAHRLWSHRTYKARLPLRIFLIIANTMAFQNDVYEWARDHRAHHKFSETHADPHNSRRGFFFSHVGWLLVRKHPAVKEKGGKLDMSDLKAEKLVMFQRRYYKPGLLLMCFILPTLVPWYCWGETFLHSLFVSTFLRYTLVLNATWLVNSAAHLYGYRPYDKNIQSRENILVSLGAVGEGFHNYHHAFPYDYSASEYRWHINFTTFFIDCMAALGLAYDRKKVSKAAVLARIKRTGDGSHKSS

Stearoyl-CoA desaturase = target: T2, Stearoyl-CoA desaturase (Homo sapiens, UniProt O00767); test: Inhibition of human SCD1
T2 sequence (O00767 whole entry): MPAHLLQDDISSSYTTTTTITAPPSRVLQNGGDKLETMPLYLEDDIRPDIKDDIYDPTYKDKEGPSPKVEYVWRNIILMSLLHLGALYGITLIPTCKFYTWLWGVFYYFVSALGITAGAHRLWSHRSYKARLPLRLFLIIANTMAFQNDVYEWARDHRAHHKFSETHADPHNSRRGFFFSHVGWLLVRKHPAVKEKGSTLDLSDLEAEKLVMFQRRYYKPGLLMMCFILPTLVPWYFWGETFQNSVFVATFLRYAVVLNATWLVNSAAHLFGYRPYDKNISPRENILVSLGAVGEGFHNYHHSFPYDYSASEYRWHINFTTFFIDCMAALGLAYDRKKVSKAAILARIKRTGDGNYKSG

[1] = target: T3, Stearoyl-CoA desaturase 5 (Homo sapiens, UniProt Q86SK9); test: Inhibition of human SCD5
T3 sequence (Q86SK9 whole entry): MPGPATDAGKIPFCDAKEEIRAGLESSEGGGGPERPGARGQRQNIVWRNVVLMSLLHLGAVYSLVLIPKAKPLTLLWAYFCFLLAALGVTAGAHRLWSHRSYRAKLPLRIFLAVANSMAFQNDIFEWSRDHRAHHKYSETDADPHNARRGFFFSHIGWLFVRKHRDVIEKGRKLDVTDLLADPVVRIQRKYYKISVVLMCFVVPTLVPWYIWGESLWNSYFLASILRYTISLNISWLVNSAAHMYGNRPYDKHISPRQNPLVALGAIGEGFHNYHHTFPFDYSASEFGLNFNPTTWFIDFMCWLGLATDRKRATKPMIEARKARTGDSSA

[2] = target: T4, Acyl-CoA (8-3)-desaturase (Rattus norvegicus, UniProt Q920R3); test: Inhibition of rat Delta(5) fatty acid desaturase by cell based assay
T4 sequence (Q920R3 whole entry): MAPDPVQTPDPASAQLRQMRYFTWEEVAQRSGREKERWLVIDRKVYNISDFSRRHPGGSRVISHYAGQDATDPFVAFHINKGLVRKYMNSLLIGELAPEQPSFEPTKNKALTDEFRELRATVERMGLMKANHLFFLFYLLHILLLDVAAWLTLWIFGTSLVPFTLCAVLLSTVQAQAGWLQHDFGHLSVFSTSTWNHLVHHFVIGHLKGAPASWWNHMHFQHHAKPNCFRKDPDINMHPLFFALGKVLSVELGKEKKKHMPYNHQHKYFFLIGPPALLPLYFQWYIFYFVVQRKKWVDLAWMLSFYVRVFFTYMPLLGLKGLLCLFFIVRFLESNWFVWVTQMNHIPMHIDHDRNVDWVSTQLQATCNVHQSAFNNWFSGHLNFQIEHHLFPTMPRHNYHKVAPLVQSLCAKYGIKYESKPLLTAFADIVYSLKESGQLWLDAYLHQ

[3] = target: Acyl-CoA (8-3)-desaturase (Homo sapiens, UniProt O60427); test: Inhibition of Delta(5) fatty acid desaturase in human HepG2 cells; assay type: cell-based
Sequence of Acyl-CoA (8-3)-desaturase (Homo sapiens, UniProt O60427) (O60427 whole entry): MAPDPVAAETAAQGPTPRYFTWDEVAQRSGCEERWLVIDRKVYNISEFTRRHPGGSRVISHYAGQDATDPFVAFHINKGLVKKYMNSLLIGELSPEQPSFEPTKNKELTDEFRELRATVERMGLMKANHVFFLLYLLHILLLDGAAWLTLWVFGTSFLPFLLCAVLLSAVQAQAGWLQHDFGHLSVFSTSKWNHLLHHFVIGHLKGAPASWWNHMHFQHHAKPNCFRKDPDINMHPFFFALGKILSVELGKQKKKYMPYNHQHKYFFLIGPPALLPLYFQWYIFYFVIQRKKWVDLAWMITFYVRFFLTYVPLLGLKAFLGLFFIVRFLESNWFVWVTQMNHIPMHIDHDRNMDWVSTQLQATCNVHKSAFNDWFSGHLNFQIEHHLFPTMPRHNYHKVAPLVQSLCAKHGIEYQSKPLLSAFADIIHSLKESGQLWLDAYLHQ

[4] = target: T4, Acyl-CoA (8-3)-desaturase; test: Inhibition of Delta(5) fatty acid desaturase in freshly isolated rat hepatocytes; assay type: cell-based, Hepatocyte
[5] = Oral bioavailability in C57BL/6 mouse at 10 mg/kg, po; assay type: ADME, organism-based, C57BL6; conditions: in vivo
[6] = Terminal half life in C57BL/6 mouse at 10 mg/kg, po or 2 mg/kg, iv; assay type: ADME, organism-based, C57BL6; conditions: in vivo, read-out: beta t1/2 (converted)
[7] = AUC in C57BL/6 mouse plasma at 10 mg/kg, po or 2 mg/kg, iv; assay type: ADME, organism-based, C57BL6
[8] = Plasma clearance in C57BL/6 mouse at 10 mg/kg, po or 2 mg/kg, iv; assay type: ADME, organism-based, C57BL6
[9] = Volume of distribution at steady state in C57BL/6 mouse at 10 mg/kg, po or 2 mg/kg, iv; assay type: ADME, organism-based, C57BL6; conditions: in vivo, read-out: Vdss
[10] = Oral bioavailability in Beagle dog at 2 mg/kg, po; assay type: ADME, organism-based, Canis lupus familiaris; conditions: in vivo
[11] = Half life in Beagle dog at 2 mg/kg, po or 0.5 mg/kg, iv; assay type: ADME, organism-based, Canis lupus familiaris; conditions: in vivo
[12] = AUC in Beagle dog plasma at 2 mg/kg, po or 0.5 mg/kg, iv; assay type: ADME, organism-based, Canis lupus familiaris
[13] = Plasma clearance in Beagle dog at 2 mg/kg, po or 0.5 mg/kg, iv; assay type: ADME, organism-based, Canis lupus familiaris
[14] = Volume of distribution at steady state in Beagle dog at 2 mg/kg, po or 0.5 mg/kg, iv; assay type: ADME, organism-based, Canis lupus familiaris; conditions: in vivo, read-out: Vdss
Mus musculus [15] = test: Inhibition of SCD activity in po dosed high sucrose/fat free diet fed C57BL/6 mouse assessed as reduction in conversion of [14C]stearic acid to [14C]oleic acid; assay type: functional, organism-based; conditions: C57BL6
Mus musculus [16] = test: Inhibition of SCD activity in high sucrose/fat free diet fed C57BL/6 mouse assessed as reduction in conversion of [14C]stearic acid to [14C]oleic acid at 30 mg/kg, po; assay type: functional; conditions: C57BL6
Mus musculus [17] = test: Inhibition of SCD activity in high sucrose/fat free diet fed C57BL/6 mouse assessed as reduction in conversion of [14C]stearic acid to [14C]oleic acid at 100 mg/kg, po; assay type: functional; conditions: C57BL6
[18] = Drug level in high sucrose/fat free diet fed C57BL/6 mouse plasma at 30 mg/kg, po after 3 hrs post dose; assay type: ADME, organism-based, C57BL6; design: dose 30 mg/kg, route oral
[19] = Drug level in high sucrose/fat free diet fed C57BL/6 mouse plasma at 100 mg/kg, po after 3 hrs post dose; assay type: ADME, organism-based, C57BL6; design: dose 100 mg/kg, route oral
[20] = Drug level in high sucrose/fat free diet fed C57BL/6 mouse liver at 30 mg/kg, po after 3 hrs post dose; assay type: ADME, organism-based, C57BL6; design: dose 30 mg/kg, route oral; conditions: read-out: Drug uptake
[21] = Drug level in high sucrose/fat free diet fed C57BL/6 mouse liver at 100 mg/kg, po after 3 hrs post dose; assay type: ADME, organism-based, C57BL6; design: dose 100 mg/kg, route oral; conditions: read-out: Drug uptake

| SMILES | pIC50 (Acyl-CoA desaturase 1) | pIC50 (Stearoyl-CoA desaturase) | pIC50 [1] | other results |
| --- | --- | --- | --- | --- |
| CS(=O)(=O)c1ccc2nc(-c3ccc(-c4ccccc4)cc3)[nH]c2c1 | 7.70 | 7.62 | < 5.00 | – |
| CS(=O)(=O)c1ccc2nc(-c3ccc(-c4cc(Cl)ccc4F)cc3)[nH]c2c1 | 6.56 | – | – | – |
| CS(=O)(=O)c1ccc2nc(-c3ccc(-c4ccoc4)cc3)[nH]c2c1 | 6.40 | 5.77 | < 4.70 | – |
| NS(=O)(=O)c1ccc2nc(-c3ccc(-c4ccccc4F)cc3)[nH]c2c1 | 6.46 | 7.13 | < 4.70 | – |
| CS(=O)(=O)c1ccc2nc(-c3ccc(Br)cc3)[nH]c2c1 | < 4.70 | – | – | – |
| CS(=O)(=O)c1ccc2nc(-c3ccc(-c4ccccc4F)cn3)[nH]c2c1 | 6.64 | – | – | – |
| Cc1ccsc1-c1ccc(-c2nc3ccc(S(C)(=O)=O)cc3[nH]2)cc1 | 6.33 | – | – | – |
| Cc1ccc(-c2ccc(-c3nc4ccc(S(C)(=O)=O)cc4[nH]3)cc2)cc1 | < 4.70 | – | – | – |
| CS(=O)(=O)c1ccc2nc(-c3ccc(-c4cccc(F)c4)cc3)[nH]c2c1 | 7.68 | 7.52 | < 4.70 | – |
| Cc1ccccc1-c1ccc(-c2nc3ccc(S(C)(=O)=O)cc3[nH]2)cc1 | 5.41 | – | – | – |
| CS(=O)(=O)c1ccn2cc(-c3ccc(-c4ccccc4)cc3)nc2c1 | 7.38 | 7.22 | < 4.70 | – |
| CS(=O)(=O)c1ccc2nc(-c3ccc(-c4ccc(O)cc4)cc3)[nH]c2c1 | 6.52 | 5.63 | < 4.70 | – |
| CS(=O)(=O)c1ccc2nc(-c3ccc(-c4ccccc4F)nc3)[nH]c2c1 | 7.24 | 7.72 | < 4.70 | – |
| CS(=O)(=O)c1cnc2nc(-c3ccc(-c4ccccc4F)cc3)[nH]c2c1 | 6.81 | – | < 4.70 | – |
| CS(=O)(=O)c1ccc2nc(-c3ccc(-c4ccc(-c5ccccc5)s4)cc3)[nH]c2c1 | < 4.70 | – | – | – |
| CS(=O)(=O)c1ccc2nc(-c3ccc(-c4ccccc4)cc3)cn2c1 | < 4.70 | – | – | – |
| O=S(=O)(c1ccc2nc(-c3ccc(-c4ccccc4F)cc3)[nH]c2c1)C1CC1 | 6.40 | – | – | – |
| C[S+]([O-])c1ccc2nc(-c3ccc(-c4ccccc4F)cc3)[nH]c2c1 (stereo not drawn) | 6.33 | 7.02 | < 4.70 | – |
| CCS(=O)(=O)c1ccc2nc(-c3ccc(-c4ccccc4F)cc3)[nH]c2c1 | 5.90 | 5.88 | < 4.70 | – |
| Cc1cccc(-c2ccc(-c3nc4ccc(S(C)(=O)=O)cc4[nH]3)cc2)c1 | 6.50 | – | – | – |
| CS(=O)(=O)c1ccc2nc(-c3ccc(-c4ccccn4)cc3)[nH]c2c1 | 5.77 | 5.75 | < 4.70 | – |

| SMILES | pIC50 (Acyl-CoA desaturase 1) | pIC50 (Stearoyl-CoA desaturase) | pIC50 [1] | other results |
| --- | --- | --- | --- | --- |
| CS(=O)(=O)c1ccc2nc(-c3ccc(-c4ccccc4O)cc3)[nH]c2c1 | 6.47 | – | – | – |
| CS(=O)(=O)c1ccc2nc(-c3ccc(-c4cccc(Cl)c4F)cc3)[nH]c2c1 | 7.02 | – | – | – |
| CSc1ccc2nc(-c3ccc(-c4ccccc4F)cc3)[nH]c2c1 | 6.16 | – | – | – |
| CS(=O)(=O)c1ccc2nc(-c3ccc(-c4ccccc4F)cc3)[nH]c2c1 | 7.19 | 7.57 | < 4.70 | pIC50 [2]: < 4.30; pIC50 [3]: 5.88; pIC50 [4]: 5.29; bioavailability [5]: 39%; half-life [6]: 35.5 h; AUC [7]: 8 µM·h; clearance [8]: 20 mL/min/kg; Vd [9]: 2.9 L/kg; bioavailability [10]: 70%; half-life [11]: 1.1 h; AUC [12]: 2.4 µM·h; clearance [13]: 26 mL/min/kg; Vd [14]: 2 L/kg; inhibition (Mus musculus [15]): Dose-dependent effect; inhibition in vivo at 30 mg/kg (Mus musculus [16]): 36%; inhibition in vivo at 100 mg/kg (Mus musculus [17]): 78%; concentration at 3 h [18]: 6.5 µM; concentration at 3 h [19]: 13.2 µM; concentration at 3 h [20]: 10.1 µM; concentration at 3 h [21]: 31.9 µM |
| Cn1c(-c2ccc(-c3ccccc3F)nc2)nc2cc(S(C)(=O)=O)ccc21 | 5.60 | – | – | – |
| CS(=O)(=O)c1ccc2nc(-c3cnc(-c4ccccc4)nc3)[nH]c2c1 | 6.31 | – | – | – |
| CS(=O)(=O)c1ccc2nc(-c3ccc(-c4cccc(Cl)c4)cc3)[nH]c2c1 | 6.83 | 7.82 | < 5.00 | – |
| CS(=O)(=O)c1ccc2nc(-c3ccc(-c4ccc(Cl)cc4)cc3)[nH]c2c1 | < 4.70 | – | – | – |
| Cn1c(-c2ccc(-c3ccccc3F)nc2)nc2ccc(S(C)(=O)=O)cc21 | < 4.70 | – | – | – |
| CS(=O)(=O)c1ccc2nc(-c3ccc(-c4cccs4)cc3)[nH]c2c1 | 7.01 | – | < 4.70 | – |
| CS(=O)(=O)c1ccc2nc(-c3ccc(-c4ccncc4)cc3)[nH]c2c1 | 5.61 | 5.37 | < 4.70 | – |
| CS(=O)(=O)c1ccc2nc(-c3ccc(-c4ccsc4)cc3)[nH]c2c1 | 6.98 | – | – | – |
| CS(=O)(=O)c1ccc2nc(-c3ccc(-c4cccnc4)cc3)[nH]c2c1 | 6.37 | – | – | – |
| CC(C)(C)c1ccc2nc(-c3ccc(-c4ccccc4F)cc3)[nH]c2c1 | 6.76 | 6.14 | < 4.70 | – |
| Fc1ccccc1-c1ccc(-c2nc3ccccc3[nH]2)cc1 | < 4.70 | – | – | – |
| CS(=O)(=O)c1ccc2nc(-c3ccc(-c4cccc(O)c4)cc3)[nH]c2c1 | 6.40 | 6.47 | < 4.70 | – |
| CS(=O)(=O)c1ccc2nc(-c3ccc(-c4ccccc4Cl)cc3)[nH]c2c1 | 5.35 | 6.59 | < 4.70 | – |
| N#Cc1ccc2nc(-c3ccc(-c4ccccc4F)cc3)[nH]c2c1 | < 4.70 | < 4.70 | < 4.70 | – |
| CS(=O)(=O)c1ccc2nc(-c3ccc(-c4ccccc4)cc3)sc2c1 | < 4.70 | – | – | – |
| CN(C)S(=O)(=O)c1ccc2nc(-c3ccc(-c4ccccc4F)cc3)[nH]c2c1 | 6.28 | – | – | – |
| CS(=O)(=O)c1ccc2nc(-c3ccc(-c4ccc(F)cc4)cc3)[nH]c2c1 | 7.60 | – | – | – |
